# In patent publication US9149038B2, “4-amino-6-(heterocyclic)picolinates and 6-amino-2-(heterocyclic)pyrimidine-4-carboxylates and their use as herbicides” (Dow AgroSciences LLC, priority 2013, dated 2015):
# Like-named read-outs stand apart in the source and are kept apart here.
# What was measured:
# [1] = test system: Key Broadleaf Weed and Crop Species; test: Post-Emergent Test II: postemergent herbicidal activity, visual rating after 14 d (Table 7); type: in vivo; conditions: post-emergence, 336 h; for pest or weed control at 35 g/ha: 35 g ai/ha; for pest or weed control at 70 g/ha: 70 g ai/ha; for pest or weed control at 140 g/ha: 140 g ai/ha; for pest or weed control at 280 g/ha: 280 g ai/ha
# Outline: (§1)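 Greenhouse-grown plants at the first or second true leaf stage (7-21 d, ~15 h photoperiod, 23-29° C day) were sprayed with compound in acetone/DMSO-based aqueous spray containing crop oil concentrate and Triton X-155 at 187 L/ha. Injury versus untreated plants was rated visually after 14 d on a 0-100 scale.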
# [2] = test system: Key Grass and Sedge Weeds as well as Grass Crops; test: Post-Emergent Test II: postemergent herbicidal activity, visual rating after 14 d (Table 8); type: in vivo; conditions: post-emergence, 336 h; for pest or weed control at 35 g/ha: 35 g ai/ha; for pest or weed control at 70 g/ha: 70 g ai/ha; for pest or weed control at 140 g/ha: 140 g ai/ha; for pest or weed control at 280 g/ha: 280 g ai/ha
# Outline: as §1
# [3] = ABUTH: velvetleaf (Abutilon theophrasti), read-out: Visual Growth Reduction (%) 14 Days After Application ABUTH
# [4] = BRSNN: oilseed rape, canola (Brassica napus), read-out: Visual Growth Reduction (%) 14 Days After Application BRSNN
# [5] = CHEAL: lambsquarters (Chenopodium album), read-out: Visual Growth Reduction (%) 14 Days After Application CHEAL
# [6] = EPHHL: wild poinsettia (Euphorbia heterophylla), read-out: Visual Growth Reduction (%) 14 Days After Application EPHHL
# [7] = HELAN: sunflower (Helianthus annuus), read-out: Visual Growth Reduction (%) 14 Days After Application HELAN
# [8] = barnyardgrass (Echinochloa crus-galli), read-out: Visual Growth Reduction (%) 14 Days After Application, ECHCG
# [9] = giant foxtail (Setaria faberi), read-out: Visual Growth Reduction (%) 14 Days After Application, SETFA
# [10] = maize, corn (Zea mays), read-out: Visual Growth Reduction (%) 14 Days After Application, ZEAMX
# [11] = rice (Oryza sativa), read-out: Visual Growth Reduction (%) 14 Days After Application, ORYSA
# [12] = wheat, spring (Triticum aestivum), read-out: Visual Growth Reduction (%) 14 Days After Application, TRZAS
# [13] = yellow nutsedge (Cyperus esculentus), read-out: Visual Growth Reduction (%) 14 Days After Application, CYPES
# [14] = AMARE: redroot pigweed (Amaranthus retroflexus), read-out: Visual Growth Reduction (%) 14 Days After Application AMARE
smiles,measurement,setting,value
COC(=O)c1nc(-c2cccc3c2OCC3)c(F)c(N)c1Cl [Compound 102],pest or weed control at 35 g/ha,[1]; [3],0 to 29%
same,pest or weed control at 70 g/ha,[1]; [3],0 to 29%
same,pest or weed control at 140 g/ha,[1]; [3],45 to 59%
same,pest or weed control at 35 g/ha,[1]; [4],0 to 29%
same,pest or weed control at 70 g/ha,[1]; [4],0 to 29%
same,pest or weed control at 140 g/ha,[1]; [4],0 to 29%
same,pest or weed control at 35 g/ha,[1]; [5],95 to 100%
same,pest or weed control at 70 g/ha,[1]; [5],95 to 100%
same,pest or weed control at 140 g/ha,[1]; [5],95 to 100%
same,pest or weed control at 35 g/ha,[1]; [6],0 to 29%
same,pest or weed control at 70 g/ha,[1]; [6],0 to 29%
same,pest or weed control at 140 g/ha,[1]; [6],0 to 29%
same,pest or weed control at 35 g/ha,[1]; [7],75 to 84%
same,pest or weed control at 70 g/ha,[1]; [7],85 to 94%
same,pest or weed control at 140 g/ha,[1]; [7],85 to 94%
same,pest or weed control at 35 g/ha,[2]; [8],0 to 29%
same,pest or weed control at 70 g/ha,[2]; [8],0 to 29%
same,pest or weed control at 140 g/ha,[2]; [8],0 to 29%
same,pest or weed control at 35 g/ha,[2]; [9],0 to 29%
same,pest or weed control at 70 g/ha,[2]; [9],0 to 29%
same,pest or weed control at 140 g/ha,[2]; [9],0 to 29%
same,pest or weed control at 35 g/ha,[2]; [10],0 to 29%
same,pest or weed control at 70 g/ha,[2]; [10],0 to 29%
same,pest or weed control at 140 g/ha,[2]; [10],0 to 29%
same,pest or weed control at 35 g/ha,[2]; [11],0 to 29%
same,pest or weed control at 70 g/ha,[2]; [11],0 to 29%
same,pest or weed control at 140 g/ha,[2]; [11],0 to 29%
same,pest or weed control at 35 g/ha,[2]; [12],0 to 29%
same,pest or weed control at 70 g/ha,[2]; [12],0 to 29%
same,pest or weed control at 140 g/ha,[2]; [12],0 to 29%
same,pest or weed control at 35 g/ha,[2]; [13],0 to 29%
same,pest or weed control at 70 g/ha,[2]; [13],0 to 29%
same,pest or weed control at 140 g/ha,[2]; [13],0 to 29%
Nc1cc(-c2ccc(Cl)c3c2OC(F)(F)O3)nc(C(=O)O)c1Cl [Compound 87],pest or weed control at 35 g/ha,[1]; [3],75 to 84%
same,pest or weed control at 70 g/ha,[1]; [3],85 to 94%
same,pest or weed control at 140 g/ha,[1]; [3],85 to 94%
same,pest or weed control at 35 g/ha,[1]; [14],95 to 100%
same,pest or weed control at 70 g/ha,[1]; [14],95 to 100%
same,pest or weed control at 140 g/ha,[1]; [14],95 to 100%
same,pest or weed control at 35 g/ha,[1]; [4],60 to 74%
same,pest or weed control at 70 g/ha,[1]; [4],75 to 84%
same,pest or weed control at 140 g/ha,[1]; [4],85 to 94%
same,pest or weed control at 35 g/ha,[1]; [5],95 to 100%
same,pest or weed control at 70 g/ha,[1]; [5],95 to 100%
same,pest or weed control at 140 g/ha,[1]; [5],95 to 100%
same,pest or weed control at 35 g/ha,[1]; [6],0 to 29%
same,pest or weed control at 70 g/ha,[1]; [6],0 to 29%
same,pest or weed control at 140 g/ha,[1]; [6],0 to 29%
same,pest or weed control at 35 g/ha,[1]; [7],75 to 84%
same,pest or weed control at 70 g/ha,[1]; [7],75 to 84%
same,pest or weed control at 140 g/ha,[1]; [7],75 to 84%
same,pest or weed control at 35 g/ha,[2]; [8],0 to 29%
same,pest or weed control at 70 g/ha,[2]; [8],0 to 29%
same,pest or weed control at 140 g/ha,[2]; [8],0 to 29%
same,pest or weed control at 35 g/ha,[2]; [9],0 to 29%
same,pest or weed control at 70 g/ha,[2]; [9],0 to 29%
same,pest or weed control at 140 g/ha,[2]; [9],0 to 29%
same,pest or weed control at 35 g/ha,[2]; [10],0 to 29%
same,pest or weed control at 70 g/ha,[2]; [10],0 to 29%
same,pest or weed control at 140 g/ha,[2]; [10],0 to 29%
same,pest or weed control at 35 g/ha,[2]; [11],0 to 29%
same,pest or weed control at 70 g/ha,[2]; [11],0 to 29%
same,pest or weed control at 140 g/ha,[2]; [11],0 to 29%
same,pest or weed control at 35 g/ha,[2]; [12],0 to 29%
same,pest or weed control at 70 g/ha,[2]; [12],0 to 29%
same,pest or weed control at 140 g/ha,[2]; [12],0 to 29%
same,pest or weed control at 35 g/ha,[2]; [13],0 to 29%
same,pest or weed control at 70 g/ha,[2]; [13],0 to 29%
same,pest or weed control at 140 g/ha,[2]; [13],0 to 29%
COC(=O)c1nc(-c2ccc3c(c2F)OC(F)(F)C3(F)F)cc(N)c1Cl [Compound 106],pest or weed control at 35 g/ha,[1]; [3],45 to 59%
same,pest or weed control at 70 g/ha,[1]; [3],75 to 84%
same,pest or weed control at 140 g/ha,[1]; [3],75 to 84%
same,pest or weed control at 280 g/ha,[1]; [3],85 to 94%
same,pest or weed control at 35 g/ha,[1]; [14],30 to 44%
same,pest or weed control at 70 g/ha,[1]; [14],30 to 44%
same,pest or weed control at 140 g/ha,[1]; [14],60 to 74%
same,pest or weed control at 280 g/ha,[1]; [14],75 to 84%
same,pest or weed control at 35 g/ha,[1]; [4],0 to 29%
same,pest or weed control at 70 g/ha,[1]; [4],0 to 29%
same,pest or weed control at 140 g/ha,[1]; [4],0 to 29%
same,pest or weed control at 280 g/ha,[1]; [4],0 to 29%
same,pest or weed control at 35 g/ha,[1]; [5],0 to 29%
same,pest or weed control at 70 g/ha,[1]; [5],0 to 29%
same,pest or weed control at 140 g/ha,[1]; [5],45 to 59%
same,pest or weed control at 280 g/ha,[1]; [5],75 to 84%
same,pest or weed control at 35 g/ha,[1]; [6],45 to 59%
same,pest or weed control at 70 g/ha,[1]; [6],60 to 74%
same,pest or weed control at 140 g/ha,[1]; [6],75 to 84%
same,pest or weed control at 280 g/ha,[1]; [6],75 to 84%
same,pest or weed control at 35 g/ha,[1]; [7],0 to 29%
same,pest or weed control at 70 g/ha,[1]; [7],0 to 29%
same,pest or weed control at 140 g/ha,[1]; [7],0 to 29%
same,pest or weed control at 280 g/ha,[1]; [7],30 to 44%
same,pest or weed control at 35 g/ha,[2]; [8],0 to 29%
same,pest or weed control at 70 g/ha,[2]; [8],0 to 29%
same,pest or weed control at 140 g/ha,[2]; [8],0 to 29%
same,pest or weed control at 280 g/ha,[2]; [8],0 to 29%
same,pest or weed control at 35 g/ha,[2]; [9],0 to 29%
same,pest or weed control at 70 g/ha,[2]; [9],0 to 29%
same,pest or weed control at 140 g/ha,[2]; [9],0 to 29%
same,pest or weed control at 280 g/ha,[2]; [9],0 to 29%
same,pest or weed control at 35 g/ha,[2]; [10],0 to 29%
same,pest or weed control at 70 g/ha,[2]; [10],0 to 29%
same,pest or weed control at 140 g/ha,[2]; [10],0 to 29%
same,pest or weed control at 280 g/ha,[2]; [10],0 to 29%
same,pest or weed control at 35 g/ha,[2]; [11],0 to 29%
same,pest or weed control at 70 g/ha,[2]; [11],0 to 29%
same,pest or weed control at 140 g/ha,[2]; [11],0 to 29%
same,pest or weed control at 280 g/ha,[2]; [11],0 to 29%
same,pest or weed control at 35 g/ha,[2]; [12],0 to 29%
same,pest or weed control at 70 g/ha,[2]; [12],0 to 29%
same,pest or weed control at 140 g/ha,[2]; [12],0 to 29%
same,pest or weed control at 280 g/ha,[2]; [12],0 to 29%
same,pest or weed control at 35 g/ha,[2]; [13],0 to 29%
same,pest or weed control at 70 g/ha,[2]; [13],0 to 29%
same,pest or weed control at 140 g/ha,[2]; [13],0 to 29%
same,pest or weed control at 280 g/ha,[2]; [13],0 to 29%
